Results on 32 compounds are retold here after ChEMBL document CHEMBL1140725, “Pradefovir: a prodrug that targets adefovir to the liver for the treatment of hepatitis B” (J Med Chem, 2008).

One series has as its system Hepatocyte. The series is described as follows: Prodrug activation in intracellular rat hepatocytes assessed as formation of adefovir diphosphate after 2 hrs. It is filed as cell-based.
The subject of another series is Liver microsomes. The series is described as follows: Prodrug activation in Wistar rat liver microsome assessed as formation of adefovir at 250 uM after 5 mins. Background: Liver microsomes are a subcellular fraction often used to study metabolism.
The subject of series [1] is Rattus norvegicus. The series is described as follows: Prodrug activation in Sprague-Dawley rat liver hepatocytes assessed as formation of adefovir diphosphate at 30 mg/kg, po after 8 hrs. It is filed as organism-based, Hepatocyte. More on the design: dose 30 mg/kg, route oral.
The test system of series [2] is Rattus norvegicus. As to the kind of experiment: Cmax in rat liver at 30 mg/kg, po. More on the design: dose 30 mg/kg, route oral. The settings on record: in vivo. The series is classed as ADME, organism-based.
Another series relates to Kidney. As to the kind of experiment: Biodistribution in rat kidney at 30 mg/kg, po after 24 hrs. The following applies: in vivo. On the set-up: dose 30 mg/kg, route oral. It is filed as ADME, organism-based.
In the next series the test system is Plasma. As to the kind of experiment: Biodistribution in rat plasma at 30 mg/kg, po after 24 hrs. It is filed as ADME, organism-based. The following applies: in vivo. More on the design: dose 30 mg/kg, route oral.
Series [3] has as its system Liver. The series is described as follows: Selectivity index, ratio of biodistribution in rat liver to kidney at 30 mg/kg, po after 24 hrs. On the set-up: dose 30 mg/kg, route oral. The following applies: in vivo. The series is classed as organism-based.
For series [4], the system named is Rattus norvegicus. As to the kind of experiment: Biodistribution in rat small intestine at 30 mg/kg, po after 24 hrs. It is filed as ADME, organism-based. More on the design: dose 30 mg/kg, route oral. The settings on record: in vivo.
The next series relates to Intestine. The series is described as follows: Selectivity index, ratio of biodistribution in rat liver to intestine at 30 mg/kg, po after 24 hrs. The series is classed as organism-based. On the set-up: dose 30 mg/kg, route oral. The following applies: in vivo.
For series [5], the system named is Liver. The series is described as follows: Biodistribution in rat liver at 30 mg/kg, po after 24 hrs. The series is classed as ADME, organism-based. On the set-up: dose 30 mg/kg, route oral. The settings on record: in vivo.

Consider `Nc1ncnc2c1ncn2CCOCP1(=O)OCCC(c2cc(F)cc(F)c2)O1` (centres undefined), for which the Activity in the series on Hepatocyte was 61.9 nmol·h/g; with Liver microsomes it was 1.5 nmol/min/mg; in the series with Rattus norvegicus [1], 2.2 nmol·h/g.

Turning to `Nc1ncnc2c1ncn2CCOCP1(=O)OCCC(c2cccc(Cl)c2Cl)O1` (centres undefined), in the series on Liver microsomes, the Activity is on record as below 4.5 nmol/min/mg.

For the compound `Nc1ncnc2c1ncn2CCOCP1(=O)OCCC(c2ccc(Cl)cc2Cl)O1` (centres undefined), the Activity was 9.8 nmol·h/g in the series with Hepatocyte and 2.5 nmol/min/mg in the series with Liver microsomes.

As for `CS(=O)(=O)O.Nc1ncnc2c1ncn2CCOCP1(=O)OCCC(c2cccc(Cl)c2)O1` (centres undefined), the Cmax in the series on Rattus norvegicus [2] worked out at 19.6 nmol/g.

In the case of `Nc1ncnc2c1ncn2CCOCP1(=O)OCCC(c2ccccc2)O1` (centres undefined), the Activity was 149.1 nmol·h/g in the series on Hepatocyte, 2.9 nmol/min/mg in the series on Liver microsomes and 0.6 nmol·h/g in the series on Rattus norvegicus [1].

Regarding `Nc1ncnc2c1ncn2CCOCP1(=O)OCCC(c2ccccc2Cl)O1` (centres undefined), the Activity in the series on Liver microsomes is 6.2 nmol/min/mg.

Take `Nc1ncnc2c1ncn2CCOCP1(=O)OCCC(c2ccccc2Br)O1` (centres undefined): the Activity was 43.1 nmol·h/g in the series on Hepatocyte, 3.5 nmol/min/mg in the series on Liver microsomes and 7.1 nmol·h/g in the series with Rattus norvegicus [1].

As to `Nc1ncnc2c1ncn2CCOCP1(=O)OCCC(c2cc(Cl)cc(Cl)c2)O1` (centres undefined), the Activity in the series on Hepatocyte is 64.4 nmol·h/g; in the series on Liver microsomes, 1.9 nmol/min/mg; in the series with Rattus norvegicus [1] it was 2 nmol·h/g.

In the case of `COc1ccc(Br)cc1C1CCOP(=O)(COCCn2cnc3c(N)ncnc32)O1` (centres undefined), in the series on Liver microsomes, the Activity is recorded as below 1 nmol/min/mg.

Turning to `Cc1cc(C)cc(C2CCOP(=O)(COCCn3cnc4c(N)ncnc43)O2)c1` (centres undefined), the values for the Activity in the series on Hepatocyte and with Liver microsomes were 40.7 nmol·h/g and 1.6 nmol/min/mg, respectively.

As for `CC(C)(C)c1ccc(C2CCOP(=O)(COCCn3cnc4c(N)ncnc43)O2)cc1` (centres undefined), the Activity came out at 0 nmol·h/g with Hepatocyte and 0.5 nmol/min/mg with Liver microsomes.

As to `Nc1ncnc2c1ncn2CCOCP1(=O)OCCC(c2cccc(F)c2)O1` (centres undefined), in the series on Liver microsomes, the Activity was below 1 nmol/min/mg.

For `Nc1ncnc2c1ncn2CCOCP1(=O)OCCC(c2cccc(Br)c2)O1` (centres undefined), the Activity worked out at 70.3 nmol·h/g with Hepatocyte, 1.9 nmol/min/mg in the series on Liver microsomes and 2.2 nmol·h/g in the series with Rattus norvegicus [1].

For the compound `COc1ccc(C2CCOP(=O)(COCCn3cnc4c(N)ncnc43)O2)cc1Br` (centres undefined), the results for the Activity in the series on Hepatocyte and in the series on Liver microsomes were below 0.5 nmol·h/g and 1.1 nmol/min/mg, respectively.

For `Nc1ncnc2c1ncn2CCOCP1(=O)OCCC(c2cccnc2)O1` (centres undefined), the Activity with Hepatocyte came to 26.7 nmol·h/g; with Liver microsomes, 2.9 nmol/min/mg.

Regarding `Nc1ncnc2c1ncn2CCOCP1(=O)OCCC(c2ccoc2)O1` (centres undefined), the Activity stood at 0 nmol·h/g in the series on Hepatocyte and 4 nmol/min/mg with Liver microsomes.

Regarding `Nc1ncnc2c1ncn2CCOCP1(=O)OCCC(c2ccc(F)cc2F)O1` (centres undefined), the Activity in the series with Liver microsomes turned out to be 2.5 nmol/min/mg.

For the compound `Nc1ncnc2c1ncn2CCOC[P@]1(=O)OCC[C@H](c2cccc(Cl)c2)O1`, the Cmax with Rattus norvegicus [2] is 5.4 nmol/g. The Activity in the series with Liver microsomes turned out to be 0.193 nmol/min/mg.

As for `Nc1ncnc2c1ncn2CCOCP1(=O)OCCC(c2c(Cl)cccc2Cl)O1` (centres undefined), in the series with Liver microsomes, the Activity was below 1 nmol/min/mg.

Consider `Nc1ncnc2c1ncn2CCOCP1(=O)OCCC(c2ccccc2F)O1` (centres undefined), for which, in the series with Liver microsomes, the Activity was below 1 nmol/min/mg.

In the case of `COc1ccc(Br)c(C2CCOP(=O)(COCCn3cnc4c(N)ncnc43)O2)c1` (centres undefined), the figures for the Activity in the series on Hepatocyte and in the series on Liver microsomes were below 0.5 nmol·h/g and 4 nmol/min/mg, respectively.

For the compound `Nc1ncnc2c1ncn2CCOCP1(=O)OCCC(c2ccncc2)O1` (centres undefined), the Activity in the series with Hepatocyte turned out to be 106.2 nmol·h/g; in the series with Liver microsomes it was 4.5 nmol/min/mg; with Rattus norvegicus [1], 1.2 nmol·h/g.

For `Nc1ncnc2c1ncn2CCOCP1(=O)OCCC(c2ccsc2)O1` (centres undefined), the Activity worked out at 0 nmol·h/g in the series on Hepatocyte and 0.5 nmol/min/mg in the series on Liver microsomes.

Consider `Nc1ncnc2c1ncn2CCOCP1(=O)OCCC(c2cc(F)ccc2F)O1` (centres undefined), for which the Activity in the series with Liver microsomes is given as 2.3 nmol/min/mg.

`Nc1ncnc2c1ncn2CCOCP1(=O)OCCC(c2c(F)cccc2F)O1` (centres undefined): the Activity in the series on Liver microsomes is given as 1.5 nmol/min/mg.

As to `Nc1ncnc2c1ncn2CCOCP1(=O)OCCC(c2ccc(Cl)c(Cl)c2)O1` (centres undefined), the Activity amounted to 6.2 nmol·h/g with Hepatocyte and 1.5 nmol/min/mg in the series on Liver microsomes.

For the compound `Nc1ncnc2c1ncn2CCOCP1(=O)OCCC(c2cccc(F)c2F)O1` (centres undefined), the Activity in the series with Liver microsomes is on record as 6.3 nmol/min/mg.

Turning to `Nc1ncnc2c1ncn2CCOCP1(=O)OCCC(c2cccc(Cl)c2)O1` (cis isomer), the Drug uptake in the series on Kidney worked out at 196 nmol·h/g; with Plasma, 55 nmol·h/g; in the series with Rattus norvegicus [4], 118 nmol·h/g; in the series with Liver [5] it was 884 nmol·h/g. Besides, the Selectivity index in the series with Liver [3] came out at 4.5; with Intestine, 7.5. This compound also had a Cmax with Rattus norvegicus [2] of 8 nmol/g. The Activity with Liver microsomes worked out at 0.421 nmol/min/mg.

As for `Nc1ncnc2c1ncn2CCOCP1(=O)OCCC(c2cccc(Cl)c2)O1` (stereo in doubt; 3h), the Activity was 109.3 nmol·h/g in the series with Hepatocyte, 10.9 nmol/min/mg in the series with Liver microsomes and 6.6 nmol·h/g in the series with Rattus norvegicus [1].

Regarding `Nc1ncnc2c1ncn2CCOCP1(=O)OCCC(c2cccc(Cl)c2)O1` (trans isomer), in the series with Liver microsomes, the Activity was below 0.01 nmol/min/mg.

Consider `CC(C)(C)C(=O)OCOP(=O)(COCCn1cnc2c(N)ncnc21)OCOC(=O)C(C)(C)C` [ADEFOVIR DIPIVOXIL], for which the Drug uptake came out at 742 nmol·h/g in the series on Kidney, 34 nmol·h/g in the series with Plasma, 3206 nmol·h/g with Rattus norvegicus [4] and 284 nmol·h/g in the series on Liver [5]. The Selectivity index in the series on Liver [3] was found to be 0.4; with Intestine, 0.08.

For the compound `Nc1ncnc2c1ncn2CCOC[P@@]1(=O)OCC[C@@H](c2cccc(Cl)c2)O1` [PRADEFOVIR], the Cmax with Rattus norvegicus [2] is 12.2 nmol/g. The Activity in the series with Liver microsomes was 0.51 nmol/min/mg.
